The record followed here is US20050208036A1, “Methods for treating or preventing GVHD” (University of North Carolina at Chapel Hill, priority 2003, published 2005).

Several values for one entry are separate records, joined by “and”; a condition that tells them apart may be missing. Equal values may be shown once.

The subject of assay [1] is bm12 mice. Nature of the assay: GVHD lethality after transfer of MLR cells into sublethally irradiated MHC class II disparate recipients. The format is in vivo, mouse. The method, then:
(§1) A bulk MLR was prepared by combining donor CD4^+ T cells obtained from C57BL/6 (H-2^b) mice (National Institutes of Health, Bethesda, Md., U.S.A.) in a 1:1 ratio with T cell-depleted, irradiated splenocytes obtained from bm12 (H-2^bm12), MHC class II disparate mice (The Jackson Laboratory, Bar Harbor, Me., U.S.A.). An anti-CD40L monoclonal antibody (hybridoma MR1, hamster IgG), obtained by culturing the hybridoma in 10% FBS/DMEM in an Accusyst Jr. hollow fiber bioreactor (Cellex Biosciences, Minneapolis, Minn., U.S.A.), was added to the bulk MLR culture and the cells were incubated for 7-10 days. Proliferative responses of the T cells to alloantigen were determined on days 2, 4, 5, 6, and 7 by measuring ^3H-thymidine incorporation into newly synthesized DNA. The antibody removed from the cultures by washing three times with 2% FBS/PBS, and aliquots of the cells (0.3×10^5, 10^5, and 3×10^5 cells) were administered in 0.5 mL DMEM by tail vein injection to bm12 mice subjected to a sublethal dose (6.0 Gy) of total body irradiation. Control irradiated mice received the same amounts of cells from MLR that had not been exposed to anti-CD40L. The mice were monitored for GVHD lethality, weight changes, and packed cell volume (PCV). Cells remaining from the primary MLR were mixed with fresh bm12 splenocytes for a secondary MLR, and proliferative responses to allogen were measured on days 1 through 5. Aliquots of the secondary MLR cultures were subsequently administered to irradiated bm12 mice.
CD4^+ T cells that were allowed to recover from a vehicle-treated 7 day MLR were uniformly fatal upon adoptive transfer into sublethally irradiated MHC class-II disparate recipients, whereas T cells subjected to ex vivo PS1145 treatment were lethal to only 22% of recipients. Mice were intravenously injected with either 10^5 naïve T cells, 10^5 cells from 7 day control MLR or 10^5 cells from MLR exposed to 6 μM or 10 μM PS1145 for 7 days. […] Thus, the NF-κB pathway is a critical regulator of T cell responses, and provides an ex vivo approach to inducing alloantigen-specific tolerance as a means of preventing GVHD.

Assay [2] deals with TNF-α. Description: LPS-induced TNF-α expression in mice, ELISA. The format is in vivo, B6 and BALB/c mice. The conditions noted are these: 1 μg/kg LPS; 10, 25 or 50 mg/kg oral; 24-72 hours post-treatment; vs controls. The method, then: (§2) B6 and BALB/c mice were given 1 μg/kg of LPS, after which they orally received either control methylcellulose or PS1145 in methylcellulose. Animals were evaluated for expression of the cytokine TNF-α and the chemokine MIP-1α (CCL3) at 24-72 hours post-treatment, as assessed by ELISA.

The subject of assay [3] is MIP-1α (CCL3). Description: LPS-induced MIP-1α (CCL3) expression in mice, ELISA. The format is in vivo, B6 and BALB/c mice. The conditions noted are these: 1 μg/kg LPS; 10, 25 or 50 mg/kg oral; 24-72 hours post-treatment; vs controls. The protocol:
as §2
(In general: ELISA stands for enzyme-linked immunosorbent assay.)

The subject of assay [4] is TNF-α. Description: TNF-α levels in colon and small intestine after transplant, cytokine bead assay. The format is in vivo, mouse. As to conditions: 5 mg/kg i.p. on days −1 and −2, days 3-18, vs untreated. The protocol: (§3) Expression of TNF-α and MIP-1α (CCL3) was evaluated in mice treated i.p. with PS1145 and subjected to transplantation of T cell-depleted bone marrow with Thy 1-selected splenocytes as a source of T cells. Mice in the test group received 5 mg/kg PS1145 on days −1 and −2 relative to transplant, while control animals were untreated. Animals were sacrificed from days 3-18 for assessment of TNF-α levels in the colon and small intestine and MIP-1α levels in the liver. A cytokine bead assay was used to measure levels of these factors. […] While TNF-α levels in control animals increased from day 3 to day 18, the level was relatively constant in animals exposed to PS1145.

Assay [5] deals with donor CD4+ T cells from C57BL/6 mice with irradiated bm12 splenocytes. Nature of the assay: Mixed lymphocyte reaction (MLR): proliferative response of T cells to alloantigen, 3H-thymidine incorporation. It is filed as cell-based, mouse. The protocol: as §1
An MLR culture was prepared consisting of a 1:1 ratio of CD4+ T cells obtained from C57BL/6 mice and T cell-depleted, irradiated MHC class II-disparate stimulators obtained from bm12 mice. PS1145, a potent inhibitor of IκB kinase and thus NF-κB activation, was added to the MLR culture at concentrations of 0.2 μM, 0.6 μM, 1 μM, 2 μM, 6 μM, and 10 μM. Control MLR cultures were left untreated or were treated with DMSO. […] This hyporesponsiveness persisted after washing of the T cells and re-exposure to alloantigen. As with anti-CD40L treated MLR, alloantigen hyporesponsiveness was reversed by addition of 50 U/mL exogenous IL-2 (FIG. 7).
(§4) The tolerance induced by PS1145 was specific to alloantigen, as responses to non-specific mitogens remained largely intact.
CD4^+ CD25^+ cells were required in cultures tolerized by anti-CD40L. To determine whether CD25^+ T cells, which express the high-affinity IL-2 receptor a chain (IL-2Rα), were required for PS 1145 induction of tolerance, CD25^+-depleted T cells were used in primary and secondary MLR. […] Similarly, CD4^+ CD25^+ T cells were not required for tolerance induction by PS1145 in secondary cultures.
Background: Incorporation of labelled thymidine or its analogues reports DNA synthesis.

Assay [6] deals with MIP-1α (CCL3). Description: MIP-1α levels in liver after transplant, cytokine bead assay. The format is in vivo, mouse. The conditions noted are these: 5 mg/kg i.p. on days −1 and −2, days 3-18, vs untreated. The protocol:
as §3

Assay [7] relates to B6D2 recipient mice. Nature of the assay: Murine stem cell transplant GVHD model, survival. The format is in vivo, mouse. The method, then: A murine stem cell transplant model was developed in which bone marrow was removed from B6 (H2^b) donors. The marrow was depleted of T cells by incubation with an anti-Thy 1.2 monoclonal antibody coupled to magnetic beads, followed by removal of T cells that bound the antibody using a magnetic column. Thy 1.2^+ T cells were isolated from splenocytes using a similar approach and were added back to the bone marrow. Animals received between 1-5×10^6 T cells and 3×10^6 bone marrow cells after lethal irradiation. The T cell-depleted marrow was transplanted into B6D2H2^bxd recipient mice that had been subjected to a lethal dose of irradiation (8.5 Gy). Recipient mice were divided into six groups, three of which received 1 mg PS1145 starting on day −2, day 0, or day 6 relative to transplant. The other three groups received methylcellulose as a control, starting on day −2, 0, or 6. PS1145 suspended in methylcellulose or methylcellulose alone was administered daily by gavage, through day 14. Mice were evaluated every three days for weight loss, GVHD, and outcome. […] Treatment with PS1145 that started on day 6 was correlated with an earlier death (all mice were dead by about day 12) as compared to treatment that started on day 0 (all mice were dead by about day 28). All mice in the methylcellulose control group were dead by day 20.
In a similar experiment, recipient mice were subjected to 1125 cGy of irradiation and then treated with oral doses of 5 mg/kg methylcellulose or PS1145. In this case, however, all animals in both groups were dead by about day 42 post-transplant (FIG. 12). […] Thus, the use of PS1145 to ameliorate GVHD via an oral route was not effective using very heavy doses of irradiation.
Experiments also were performed in which 5 mg/kg PS1145 or methylcellulose was given intraperitoneally (i.p.) to mice starting on day −2 and ending on day 14 post-transplantation. B6D2 mice that had received 850 cGy of irradiation were injected with 3×10^6 bone marrow cells from B6 donors and 5×10^6 selected B6 T cells.

For assay [8], the system named is alloreactive transgenic T cells. Nature of the assay: T cell apoptosis in MLR of alloreactive and non-alloreactive transgenic T cells, Annexin V binding. The conditions noted are these: 10 μM, 1:1 alloreactive and non-alloreactive transgenic T cells. It is filed as cell-based.
Text: as §4

Assay [9] addresses NEMO (Homo sapiens, UniProt Q9Y6K9). Description: NBD mutants: ability to bind to NEMO. The format is binding.
Setting [10] is: 5 mg/kg i.p. day −2 to day 14, 850 cGy.
The mark [11] stands for this setting: oral 5 mg/kg, 1125 cGy irradiation.

Sequence of NEMO (Q9Y6K9 whole entry, species assumed): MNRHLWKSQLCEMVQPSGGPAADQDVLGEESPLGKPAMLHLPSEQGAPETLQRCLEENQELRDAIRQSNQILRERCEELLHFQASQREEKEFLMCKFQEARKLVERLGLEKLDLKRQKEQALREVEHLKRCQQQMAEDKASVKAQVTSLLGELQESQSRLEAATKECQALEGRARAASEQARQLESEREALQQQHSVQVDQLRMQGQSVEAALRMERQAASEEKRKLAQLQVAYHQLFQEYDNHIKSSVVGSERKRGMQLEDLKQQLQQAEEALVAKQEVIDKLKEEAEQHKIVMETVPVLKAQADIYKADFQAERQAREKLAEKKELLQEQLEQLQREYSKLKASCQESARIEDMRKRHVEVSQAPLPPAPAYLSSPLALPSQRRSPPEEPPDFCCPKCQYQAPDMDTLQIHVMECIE

For the compound `O=C(Nc1cc(Cl)cc2c1[nH]c1cnccc12)c1cccnc1` [PS1145], the “Long term survival (>90 days)” value in assay [1] (10^5 cells i.v. from MLR exposed to 6 μM for 7 days) is “five of eight and 5/8”. For the same compound, the “Long term survival (>90 days)” value in [1] (10^5 cells i.v. from MLR exposed to 10 μM for 7 days) is “nine of ten and 9/10”. Further, in [1] (T cells treated ex vivo, adoptive transfer), the “recipients to which treated T cells were lethal” value is given as 22%. Moreover, the long-term survival rate in assay [1] (recipients of donor T cells treated ex vivo) came out at 78%. Moreover, the TNF-α expression result in assay [2] was “markedly reduced”. Also, in assay [3], the “MIP-1α (CCL3) expression” value is on record as “markedly reduced”. Besides, the “TNF-α expression in colon and small intestine” value in [4] is recorded as “significantly decreased”. Further, the “response on re-exposure to allogeneic APC” value in assay [5] (10 μM, re-exposed to allogeneic APC) was “remained hyporesponsive”. Besides, the “proliferation after secondary stimulus of CD3+ and CD28+ cells” value in assay [5] (10 μM, secondary stimulus CD3+ and CD28+ cells) was “comparable to controls”. Further, the “alloantigen hyporesponsiveness with exogenous IL-2” value in assay [5] (50 U/mL exogenous IL-2 added) was “reversed”. The “T cell proliferation in response to alloantigen” value in [5] (MLR treated with 6 μM and 10 μM) was “reduced level of proliferation”. For the same compound, the “hyporesponsiveness after washing of the T cells and re-exposure to alloantigen” value in assay [5] (after washing, re-exposure to alloantigen) was “persisted”. In assay [6], the “MIP-1α levels in the liver” value is “Analogous results”. Besides, the “day by which all mice were dead” value in [7] (1 mg daily by gavage from day 0 through day 14, 8.5 Gy) was approximately 28 days. In addition, the “day by which all mice were dead” value in assay [7] (1 mg daily by gavage from day 6 through day 14, 8.5 Gy) is approximately 12 days. Also, the “mice surviving at least through day 50” value in assay [7] (1 mg daily by gavage from day −2 through day 14, 8.5 Gy) was “about 20%”. In addition, in assay [7] (setting [10]), the “Survival Day 30” value is reported as 7/10, the “Survival Day 60” value is 5/10 and the “survival of B6D2 mice” value turned out to be 50%. For the same compound, in assay [7] (setting [11]), the “day post-transplant by which all animals were dead” value is approximately 42 days and the “survival time compared with methylcellulose group” value is “little difference”. Moreover, in assay [8], the “rate of T cell apoptosis” value was “increased the rate of T cell apoptosis selectively in alloreactive cells”.
With “ADWSWL (Hexapeptide variant of human IKK-beta NBD (SEQ ID NO2) having A in the 1st position.) [NBD mutant]”, in [9], the “Binds to NEMO” value is given as “Yes”.
In the case of “LAWSWL (Hexapeptide variant of human IKK-beta NBD (SEQ ID NO2) having A in the 2nd position.) [NBD mutant]”, the “Binds to NEMO” value in assay [9] is recorded as “No”.
Still for that read-out and setting: then “LDASAL (Hexapeptide variant of human IKK-beta NBD (SEQ ID NO2) having A in the 3rd and 5th positions.) [NBD mutant]”, with “No”; and “LDASWL (Hexapeptide variant of human IKK-beta NBD (SEQ ID NO2) having A in the 3rd position.) [NBD mutant]”, with “No”; and “LDFSWL (Hexapeptide variant of human IKK-beta NBD (SEQ ID NO2) having F in the 3rd position.) [NBD mutant]”, with “Yes”.
Regarding LDSWSL (listed as Homo sapiens), in [9], the “Binds to NEMO” value is reported as “Yes”.
With “LDWAWL (Hexapeptide variant of human IKK-beta NBD (SEQ ID NO2) having A in the 4th position.) [NBD mutant]”, the “Binds to NEMO” value in assay [9] was “Yes”.
Same read-out and setting: to “LDWEWL (Hexapeptide variant of human IKK-beta NBD (SEQ ID NO2) having E in the 4th position.) [NBD mutant]” belongs “Yes”.
In the case of “LDWSAL (Hexapeptide variant of human IKK-beta NBD (SEQ ID NO2) having A in the 5th position.) [NBD mutant]”, the “Binds to NEMO” value in assay [9] is “No”.
Consider “LDWSFL (Hexapeptide variant of human IKK-beta NBD (SEQ ID NO2) having F in the 5th position.) [NBD mutant]”, for which the “Binds to NEMO” value in assay [9] is recorded as “Yes”.
On the same count and under the same terms, then “LDWSWA (Hexapeptide variant of human IKK-beta NBD (SEQ ID NO2) having A in the 6th position.) [NBD mutant]”, with “Yes”; and “LDWSYL (Hexapeptide variant of human IKK-beta NBD (SEQ ID NO2) having Y in the 5th position.) [NBD mutant]”, with “No”; and “LDYSWL (Hexapeptide variant of human IKK-beta NBD (SEQ ID NO2) having Y in the 3rd position.) [NBD mutant]”, with “Yes”.
On the same count and under the same terms, to “LEWSWL (Hexapeptide variant of human IKK-beta NBD (SEQ ID NO2) having E in the 2nd position.) [NBD mutant]” belongs “Yes”; to “LNWSWL (Hexapeptide variant of human IKK-beta NBD (SEQ ID NO2) having N in the 2nd position.) [NBD mutant]”, “Yes”.
